In patent US11028090B2 (Dong Wha Pharm. Co., Ltd., priority 2017, dated 2021):
Read-outs that look alike come from different tables or passages of the source.

Columns and labels:
[1] = molecular target: BRD4 (BD1+BD2) bromodomain (Homo sapiens (Human), UniProt O60885); experiment: BRD4 binding inhibition (AlphaScreen, GST-BRD4 vs tetraacetylated histone H4 peptide)
Procedure, shortened: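 AlphaScreen read after 30 min dark incubation at room temperature with glutathione acceptor/streptavidin donor beads (10 μg/ml each). The beads were added to compound plus 100 nM biotin-H4 (K5,8,12,16-acetyl) peptide and 100 nM GST-BRD4 BD1+BD2 in pH 7.4 HEPES/Tween/BSA/DTT buffer.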

[2] = tested on: acute myelogenous leukemia cells (MV-4-11 cells); experiment: Cytotoxicity to acute myelogenous leukemia cells (MV-4-11 cells), CCK-8; conditions: Homo sapiens, MV4-11, 72 h
[3] = GST-BRD4 (BD1+BD2) / biotinylated acetyl-histone H4 (Lys5,8,12,16) peptide, read-out: IC50, BRD4 binding inhibition
[4] = GST-BRD4 (BD1+BD2) vs biotinylated acetyl-histone H4 peptide, AlphaScreen, read-out: BRD4 IC50
[5] = read-out: MV-4-11 Cytotoxicity IC50
[6] = read-out: IC50, cytotoxicity against acute myelogenous leukemia cells

IC50 [1, 3] | IC50 [1, 4] | Compound | IC50 [2, 5] | IC50 [2, 6]
≤ 50 nM | 32 nM | CCC(C)CC(=O)NCCCCNc1nc2c(OC)c(OC)c(OC)cc2n2c(C)nnc12 (centres unmarked) [Example 196, 3-methyl-pentanoic acid-[4-(6,7,8-trimethoxy-1-methyl-[1,2,4]triazolo[4,3-a]quinoxaline-4-ylamino)-butyl]-amide] | 550 nM | 
 | 58 nM | COC(=O)c1ccc2c(c1)nc(NCCCCNC(=O)CC(C)C)c1nnc(C)n12 [Example 199, 1-methyl-4-[4-(3-methyl-butyrylamino)-butylamino]-[1,2,4]triazolo[4,3-a]quinoxaline-7-carboxylic acid methylester] | 49 nM | ≤ 200 nM
≤ 50 nM | 22 nM | Cc1nnc2c(NCCCCNC(=O)CC(C)C)nc3cc(C(=O)Nc4ccccc4N)ccc3n12 [Example 215, 1-methyl-4-[4-(3-methyl-butyrylamino)-butylamino]-[1,2,4]triazolo[4,3-a]quinoxaline-7-carboxylic acid-(2-amino-phenyl)-amide] | 276 nM | 
≤ 50 nM | 31 nM | Cc1ccc(NC(=O)c2ccc3c(c2)nc(NCCCCNC(=O)CC(C)C)c2nnc(C)n23)c(N)c1 [Example 216, 1-methyl-4-[4-(3-methyl-butyrylamino)-butylamino]-[1,2,4]triazolo[4,3-a]quinoxaline-7-carboxylic acid-(2-amino-4-methyl-phenyl)-amide] | 240 nM | 
≤ 50 nM | 16 nM | COc1cc(N)c(NC(=O)c2ccc3c(c2)nc(NCCCCNC(=O)CC(C)C)c2nnc(C)n23)cc1OC [Example 217, 1-methyl-4-[4-(3-methyl-butyrylamino)-butylamino]-[1,2,4]triazolo[4,3-a]quinoxaline-7-carboxylic acid-(2-amino-4,5-dimethoxy-phenyl)-amide] | 256 nM | 
≤ 50 nM | 25 nM | Cc1nnc2c(NCCCCNC(=O)OC(C)(C)C)nc3cc(-c4nc5ccccc5[nH]4)ccc3n12 [Example 218, {4-[7-(1H-benzoimidazole-2-yl)-1-methyl-[1,2,4]triazolo[4,3-a]quinoxaline-4-ylamino]-butyl}-carbamic acid-tert-butylester] | 320 nM | 
 | 68 nM | Cc1ccc2[nH]c(-c3ccc4c(c3)nc(NCCCCNC(=O)OC(C)(C)C)c3nnc(C)n34)nc2c1 [Example 219, {4-[1-methyl-7-(5-methyl-1H-benzoimidazole-2-yl)-[1,2,4]triazolo[4,3-a]quinoxaline-4-ylamino]-butyl}-carbamic acid-tert-butylester] | 79 nM | ≤ 200 nM
≤ 10 nM |  | Cc1nnc2c(NCCCCNC(=O)OC(C)(C)C)nc3cc(-c4nc5ccccc5n4C)ccc3n12 [Example 220, {4-[1-methyl-7-(1-methyl-1H-benzoimidazole-2-yl)-[1,2,4]triazolo[4,3-a]quinoxaline-4-ylamino]-butyl}-carbamic acid-tert-butylester] | 350 nM | 
≤ 10 nM | 1 nM | Cc1nnc2c(NCCCCNC(=O)CC(C)C)nc3cc(-c4nc5ccccc5n4C)ccc3n12 [Example 222, 3-methyl-N-{4-[1-methyl-7-(1-methyl-1H-benzoimidazole-2-yl)-[1,2,4]triazolo[4,3-a]quinoxaline-4-ylamino]-butyl}-butyramide] | 53 nM | ≤ 200 nM
≤ 50 nM | 17 nM | Cc1ccc2[nH]c(-c3ccc4c(c3)nc(NCCCCNC(=O)CC(C)C)c3nnc(C)n34)nc2c1 [Example 223, 3-methyl-N-{4-[1-methyl-7-(5-methyl-1H-benzoimidazole-2-yl)-[1,2,4]triazolo[4,3-a]quinoxaline-4-ylamino]-butyl}-butyramide] | 14 nM | ≤ 200 nM
≤ 50 nM | 13 nM | Cc1nnc2c(NCCCCNC(=O)CC(C)C)nc3cc(-c4nc5ccccc5[nH]4)ccc3n12 [Example 224, N-{4-[7-(1H-benzoimidazole-2-yl)-1-methyl-[1,2,4]triazolo[4,3-a]quinoxaline-4-ylamino]-butyl}-3-methyl-butyramide] | 3 nM | ≤ 200 nM
≤ 10 nM | 4 nM | Cc1nnc2c(NCCCCNC(=O)[C@H](O)C(C)C)nc3cc(-c4nc5ccccc5[nH]4)ccc3n12 [Example 226, N-{4-[7-(1H-benzoimidazole-2-yl)-1-methyl-[1,2,4]triazolo[4,3-a]quinoxaline-4-ylamino]-butyl}-2-(R)-hydroxy-3-methyl-butyramide] | 290 nM | 
≤ 10 nM | 1 nM | COc1cc2nc(-c3ccc4c(c3)nc(NCCCCNC(=O)CC(C)C)c3nnc(C)n34)[nH]c2cc1OC [Example 227, N-{4-[7-(5,6-dimethoxy-1H-benzoimidazole-2-yl)-1-methyl-[1,2,4]triazolo[4,3-a]quinoxaline-4-ylamino]-butyl}-3-methyl-butyramide] | 39 nM | ≤ 200 nM
≤ 10 nM | 7 nM | CCCOC(=O)NCCCCNc1nc2cc(-c3nc4ccccc4n3C)ccc2n2c(C)nnc12 [Example 228, {4-[1-methyl-7-(1-methyl-1H-benzoimidazole-2-yl)-[1,2,4]triazolo[4,3-a]quinoxaline-4-ylamino]-butyl}-carbamic acid propylester] | 140 nM | ≤ 200 nM
≤ 10 nM | 3 nM | Cc1nnc2c(NCCCCNC(=O)OC3CCCC3)nc3cc(-c4nc5ccccc5n4C)ccc3n12 [Example 229, {4-[1-methyl-7-(1-methyl-1H-benzoimidazole-2-yl)-[1,2,4]triazolo[4,3-a]quinoxaline-4-ylamino]-butyl}-carbamic acid cyclopentylester] | 150 nM | ≤ 200 nM
≤ 50 nM | 13 nM | Cc1nnc2c(NCCCCNC(=O)C(C)(C)C)nc3cc(-c4nc5ccccc5n4C)ccc3n12 [Example 230, 2,2-dimethyl-N-{4-[1-methyl-7-(1-methyl-1H-benzoimidazole-2-yl)-[1,2,4]triazolo[4,3-a]quinoxaline-4-ylamino]-butyl}-propionamide] | 580 nM | 
≤ 10 nM | 2 nM | CCC(F)(F)C(=O)NCCCCNc1nc2cc(-c3nc4ccccc4n3C)ccc2n2c(C)nnc12 [Example 233, 2,2-difluoro-N-{4-[1-methyl-7-(1-methyl-1H-benzoimidazole-2-yl)-[1,2,4]triazolo[4,3-a]quinoxaline-4-ylamino]-butyl}-butyramide] | 71 nM | ≤ 200 nM
≤ 10 nM | 6 nM | Cc1nnc2c(NCCCCNC(=O)[C@@H](O)C(C)C)nc3cc(-c4nc5ccccc5n4C)ccc3n12 [Example 234, 2-(S)-hydroxy-3-methyl-N-{4-[1-methyl-7-(1-methyl-1H-benzoimidazole-2-yl)-[1,2,4]triazolo[4,3-a]quinoxaline-4-ylamino]-butyl}-butyramide] | 47 nM | ≤ 200 nM
≤ 50 nM | 11 nM | Cc1nnc2c(NCCCCNC(=O)[C@H](O)C(C)C)nc3cc(-c4nc5ccccc5n4C)ccc3n12 [Example 235, 2-(R)-hydroxy-3-methyl-N-{4-[1-methyl-7-(1-methyl-1H-benzimidazole-2-yl)-[1,2,4]triazolo[4,3-a]quinoxaline-4-ylamino]-butyl}-butyramide] | 390 nM | 
≤ 10 nM | 2 nM | Cc1nnc2c(NCCCCNC(=O)CCC(C)C)nc3cc(-c4nc5ccccc5n4C)ccc3n12 [Example 236, 4-methyl-pentanoic acid-{4-[1-methyl-7-(1-methyl-1H-benzoimidazole-2-yl)-[1,2,4]triazolo[4,3-a]quinoxaline-4-ylamino]-butyl}-amide] | 87 nM | ≤ 200 nM
≤ 10 nM | 0.6 nM | COc1ccccc1C(=O)NCCCCNc1nc2cc(-c3nc4ccccc4n3C)ccc2n2c(C)nnc12 [Example 237, 2-methoxy-N-{4-[1-methyl-7-(1-methyl-1H-benzoimidazole-2-yl)-[1,2,4]triazolo[4,3-a]quinoxaline-4-ylamino]-butyl}-benzamide] | 500 nM | 
≤ 50 nM | 15 nM | Cc1nnc2c(NCCCCNC(=O)NC(C)C)nc3cc(-c4nc5ccccc5n4C)ccc3n12 [Example 238, 1-isopropyl-3-{4-[1-methyl-7-(1-methyl-1H-benzoimidazole-2-yl)-[1,2,4]triazolo[4,3-a]quinoxaline-4-ylamino]-butyl}-urea] | 650 nM | 
≤ 50 nM | 18 nM | Cc1nnc2c(NCCCCNC(=O)NC3CCCCC3)nc3cc(-c4nc5ccccc5n4C)ccc3n12 [Example 239, 1-cyclohexyl-3-{4-[1-methyl-7-(1-methyl-1H-benzoimidazole-2-yl)-[1,2,4]triazolo[4,3-a]quinoxaline-4-ylamino]-butyl}-urea] | 660 nM | 
≤ 10 nM | 0.9 nM | CCCn1c(-c2ccc3c(c2)nc(NCCCCNC(=O)CC(C)C)c2nnc(C)n23)nc2ccccc21 [Example 240, 3-methyl-N-{4-[1-methyl-7-(1-propyl-1H-benzoimidazole-2-yl)-[1,2,4]triazolo[4,3-a]quinoxaline-4-ylamino]-butyl}-butyramide] | 158 nM | ≤ 200 nM
 | 89 nM | Cc1nnc2c(NCCCCNC(=O)CC(C)C)nc3cc([N+](=O)[O-])ccc3n12 [Example 244] | 260 nM | 
